According to ChEMBL document CHEMBL4177613, “Development of photoaffinity derivatives of the antitumor macrolide aplyronine A, a PPI-inducer between actin and tubulin” (Bioorg Med Chem, 2017):
Calls of active or inactive are those of the source. The rule behind the calls is not given here.

Legend:
Oryctolagus cuniculus [1] = species: Oryctolagus cuniculus; experiment: Binding affinity to rabbit skeletal muscle actin preincubated for 60 mins followed by UV irradiation for 15 mins in presence of aplyronine A by SDS-PAGE analysis
HeLa S3 = experiment: Cytotoxicity against human HeLaS3 cells after 96 hrs by MTT assay; type: functional, cell-based; conditions: HeLa S3, 96 h
[2] = Binding affinity to rabbit skeletal muscle actin/pig brain tubulin preincubated for 60 mins followed by UV irradiation for 15 mins in presence of aplyronine A by SDS-PAGE analysis
[3] = Binding affinity to rabbit skeletal muscle actin/porcine brain tubulin preincubated for 30 mins followed by UV irradiation of 0.8 mW for 15 mins measured after 30 mins by TAMRA azide-based fluorescence SDS-PAGE analysis
Sus scrofa = species: Sus scrofa; experiment: Binding affinity to pig brain tubulin preincubated for 30 mins followed by UV irradiation of 0.8 mW for 15 mins measured after 30 mins by TAMRA azide-based fluorescence SDS-PAGE analysis
Oryctolagus cuniculus [4] = species: Oryctolagus cuniculus; experiment: Binding affinity to rabbit skeletal muscle actin preincubated for 30 mins followed by UV irradiation of 0.8 mW for 15 mins measured after 30 mins by TAMRA azide-based fluorescence SDS-PAGE analysis
Oryctolagus cuniculus [5] = species: Oryctolagus cuniculus; experiment: Inhibition of rabbit skeletal muscle F-actin polymerization at 3 uM after 1 hr by SDS-PAGE assay

Row | SMILES | Activity (Oryctolagus cuniculus [1]) | Activity [2] | Activity [3] | Activity (Sus scrofa) | Activity (Oryctolagus cuniculus [4]) | IC50 (HeLa S3) [nM] | inhibition (Oryctolagus cuniculus [5])
1 | COCC(C(=O)O[C@@H]1C/C=C/C=C/C(=O)O[C@H]([C@@H](C)[C@@H](O)[C@@H](C)CC[C@@H](OC(=O)[C@H](C)N(C)C)[C@H](C)[C@H](OC(C)=O)[C@H](C)CC=NOCC(=O)NCCCC[C@H](NC(=O)c2ccc(C3(C(F)(F)F)N=N3)cc2)C(=O)NCCCCCCNC(=O)c2ccc(-c3c4ccc(N(C)C)cc4[o+]c4cc(N(C)C)ccc34)c(C(=O)[O-])c2)C/C=C/[C@H](OC)C[C@H](C)C/C=C(\C)[C@@H](OC)CC[C@@H](C)[C@@H](O)[C@@H]1C)N(C)C (stereo not given in full) | Active | inactive | – | – | – | 13 | –
2 | COCC(C(=O)O[C@@H]1C/C=C/C=C/C(=O)O[C@H]([C@@H](C)[C@@H](O)[C@@H](C)CC[C@@H](OC(=O)[C@H](C)N(C)C)[C@H](C)[C@H](OC(C)=O)[C@H](C)CC=NOCC(=O)NCCCC[C@H](NC(=O)CCC(=O)NCCCOCCOCCOCCCNC(=O)c2ccc(C3(C(F)(F)F)N=N3)cc2)C(=O)NCCCCCCNC(=O)c2ccc(-c3c4ccc(N(C)C)cc4[o+]c4cc(N(C)C)ccc34)c(C(=O)[O-])c2)C/C=C/[C@H](OC)C[C@H](C)C/C=C(\C)[C@@H](OC)CC[C@@H](C)[C@@H](O)[C@@H]1C)N(C)C (stereo not given in full) | Active | inactive | – | – | – | 28 | –
3 | COCC(C(=O)O[C@@H]1C/C=C/C=C/C(=O)O[C@H]([C@@H](C)[C@@H](O)[C@@H](C)CC[C@@H](OC(=O)[C@H](C)N(C)C)[C@H](C)[C@H](OC(C)=O)[C@H](C)CC=NOCC(=O)NCCCC[C@H](NC(=O)c2ccc(C3(C(F)(F)F)N=N3)cc2)C(=O)NCCCOCCOCCOCCCNC(=O)CCCC[C@@H]2SC[C@@H]3NC(=O)N[C@@H]32)C/C=C/[C@H](OC)C[C@H](C)C/C=C(\C)[C@@H](OC)CC[C@@H](C)[C@@H](O)[C@@H]1C)N(C)C (stereo not given in full) | – | – | – | – | – | 1.2 | –
4 | COCC(C(=O)O[C@@H]1C/C=C/C=C/C(=O)O[C@H]([C@@H](C)[C@@H](O)[C@@H](C)CC[C@@H](OC(=O)[C@H](C)N(C)C)[C@H](C)[C@H](OC(C)=O)[C@H](C)/C=C/N(C)C=O)C/C=C/[C@H](OC)C[C@H](C)C/C=C(\C)[C@@H](OC)CC[C@@H](C)[C@@H](O)[C@@H]1C)N(C)C (stereo not given in full) | – | – | inactive | – | – | 0.01 | Active

More lines, main results first:

Row | Activity (Oryctolagus cuniculus [1]) | Activity [2] | Activity [3] | Activity (Sus scrofa) | Activity (Oryctolagus cuniculus [4]) | SMILES | IC50 (HeLa S3) [nM] | inhibition (Oryctolagus cuniculus [5])
5 | – | – | Active | Active | – | COCC(C(=O)O[C@@H]1C/C=C/C=C/C(=O)O[C@H]([C@@H](C)[C@@H](O)[C@@H](C)CC[C@@H](OC(=O)[C@H](C)N(C)C)[C@H](C)[C@H](OC(C)=O)[C@H](C)CC=NOCC(=O)NCCCC[C@H](NC(=O)CCC(=O)NCCCOCCOCCOCCCNC(=O)c2ccc(C3(C(F)(F)F)N=N3)cc2)C(=O)NCCCOCCOCCOCCCNC(=O)CCCC[C@@H]2SC[C@@H]3NC(=O)N[C@@H]32)C/C=C/[C@H](OC)C[C@H](C)C/C=C(\C)[C@@H](OC)CC[C@@H](C)[C@@H](O)[C@@H]1C)N(C)C (stereo not given in full) | 0.54 | –
6 | – | – | inactive | inactive | Active | C#CCNC(=O)[C@H](CCCCNC(=O)CON=CC[C@@H](C)[C@@H](OC(C)=O)[C@@H](C)[C@@H](CC[C@H](C)[C@H](O)[C@H](C)[C@@H]1C/C=C/[C@H](OC)C[C@H](C)C/C=C(\C)[C@@H](OC)CC[C@@H](C)[C@@H](O)[C@H](C)[C@H](OC(=O)C(COC)N(C)C)C/C=C/C=C/C(=O)O1)OC(=O)[C@H](C)N(C)C)NC(=O)CCC(=O)NCCCOCCOCCOCCCNC(=O)c1ccc(C2(C(F)(F)F)N=N2)cc1 (stereo not given in full) | 1.2 | Active
7 | – | – | – | – | Active | C#CCNC(=O)[C@H](CCCCNC(=O)CON=CC[C@@H](C)[C@@H](OC(C)=O)[C@@H](C)[C@@H](CC[C@H](C)[C@H](O)[C@H](C)[C@@H]1C/C=C/[C@H](OC)C[C@H](C)C/C=C(\C)[C@@H](OC)CC[C@@H](C)[C@@H](O)[C@H](C)[C@H](OC(=O)C(COC)N(C)C)C/C=C/C=C/C(=O)O1)OC(=O)[C@H](C)N(C)C)NC(=O)c1ccc(C2(C(F)(F)F)N=N2)cc1 (stereo not given in full) | 0.76 | –
